Data published in ChEMBL document CHEMBL4316596, “Antimicrobial Peptides with High Proteolytic Resistance for Combating Gram-Negative Bacteria” (J Med Chem, 2019).

Tested on: Escherichia coli
Assay: Bactericidal activity against Escherichia coli ATCC 25922 incubated for 4 hrs followed by culture spread on agar plates and cultured overnight in presence of NH4Cl
Assay type: functional
Conditions: ATCC 25922, 4 h, read-out: MBC>99.9

Row | Substance | MBC
1 | H-IKPIIKPIIKPIIKPIIKPIIKPI-NH2 | > 128 µM

Tested on: Acinetobacter baumannii
Assay: Antimicrobial activity against Acinetobacter baumannii after 24 hrs by NCCLS-protocol based assay
Assay type: functional
Conditions: not given

Row | Substance | MIC95
2 | H-IKPIIKPIIKPIIKPIIKPIIKPI-NH2 | 16 µM

Tested on: Acinetobacter baumannii
Assay: Bactericidal activity against Acinetobacter baumannii incubated for 4 hrs followed by culture spread on agar plates and cultured overnight
Assay type: functional
Conditions: read-out: MBC>99.9

Row | Substance | MBC
3 | H-IKPIIKPIIKPIIKPIIKPIIKPI-NH2 | 16 µM

Tested on: Escherichia coli
Assay: Bactericidal activity against Escherichia coli ATCC 25922 incubated for 4 hrs followed by culture spread on agar plates and cultured overnight in presence of 50% serum albumin
Assay type: functional
Conditions: ATCC 25922, 4 h, read-out: MBC>99.9

Row | Substance | MBC
4 | H-IKPIIKPIIKPIIKPIIKPIIKPI-NH2 | > 128 µM

Tested on: Pseudomonas aeruginosa
Assay: Bactericidal activity against Pseudomonas aeruginosa 25349 clinical isolates incubated for 4 hrs followed by culture spread on agar plates and cultured overnight
Assay type: functional
Conditions: Pseudomonas aeruginosa, 25349, 4 h; read-out: MBC>99.9

Row | Substance | MBC
5 | H-IKPIIKPIIKPIIKPIIKPIIKPI-NH2 | > 64 µM

Tested on: Escherichia coli
Assay: Bactericidal activity against Escherichia coli ATCC 25922 incubated for 4 hrs followed by culture spread on agar plates and cultured overnight
Assay type: functional
Conditions: ATCC 25922, 4 h, read-out: MBC>99.9

Row | Substance | MBC
6 | H-IKPIIKPIIKPIIKPIIKPIIKPI-NH2 | 32 µM

Tested on: Salmonella typhimurium
Assay: Bactericidal activity against Salmonella typhimurium ATCC 14028 incubated for 4 hrs followed by culture spread on agar plates and cultured overnight
Assay type: functional, Salmonella enterica subsp. enterica serovar Typhimurium
Conditions: Salmonella enterica, ATCC 14028, 4 h; read-out: MBC>99.9

Row | Substance | MBC
7 | H-IKPIIKPIIKPIIKPIIKPIIKPI-NH2 | > 64 µM

Tested on: Escherichia coli
Assay: Bactericidal activity against Escherichia coli K99 incubated for 4 hrs followed by culture spread on agar plates and cultured overnight
Assay type: functional
Conditions: K99, 4 h, read-out: MBC>99.9

Row | Substance | MBC
8 | H-IKPIIKPIIKPIIKPIIKPIIKPI-NH2 | 16 µM

Tested on: Pseudomonas aeruginosa
Assay: Bactericidal activity against Pseudomonas aeruginosa CICC 21625 clinical isolates incubated for 4 hrs followed by culture spread on agar plates and cultured overnight
Assay type: functional
Conditions: CICC 21625, 4 h, read-out: MBC>99.9

Row | Substance | MBC
9 | H-IKPIIKPIIKPIIKPIIKPIIKPI-NH2 | > 64 µM

Tested on: Escherichia coli
Assay: Bactericidal activity against Escherichia coli ATCC 25922 incubated for 4 hrs followed by culture spread on agar plates and cultured overnight in presence of ZnCl2
Assay type: functional
Conditions: ATCC 25922, 4 h, read-out: MBC>99.9

Row | Substance | MBC
10 | H-IKPIIKPIIKPIIKPIIKPIIKPI-NH2 | > 128 µM

Tested on: Escherichia coli
Assay: Bactericidal activity against Escherichia coli 078 incubated for 4 hrs followed by culture spread on agar plates and cultured overnight
Assay type: functional
Conditions: Escherichia coli, 078, 4 h; read-out: MBC>99.9

Row | Substance | MBC
11 | H-IKPIIKPIIKPIIKPIIKPIIKPI-NH2 | > 64 µM

Tested on: Salmonella typhimurium
Assay: Antimicrobial activity against Salmonella typhimurium ATCC 14028 after 24 hrs by NCCLS-protocol based assay
Assay type: functional, Salmonella enterica subsp. enterica serovar Typhimurium
Conditions: Salmonella enterica, ATCC 14028, 24 h

Row | Substance | MIC95
12 | H-IKPIIKPIIKPIIKPIIKPIIKPI-NH2 | 64 µM

Tested on: Escherichia coli
Assay: Bactericidal activity against Escherichia coli ATCC 25922 incubated for 4 hrs followed by culture spread on agar plates and cultured overnight in presence of KCl
Assay type: functional
Conditions: ATCC 25922, 4 h, read-out: MBC>99.9

Row | Substance | MBC
13 | H-IKPIIKPIIKPIIKPIIKPIIKPI-NH2 | > 128 µM

Tested on: Pseudomonas aeruginosa
Assay: Antimicrobial activity against Pseudomonas aeruginosa 25349 clinical isolates after 24 hrs by NCCLS-protocol based assay
Assay type: functional
Conditions: Pseudomonas aeruginosa, 25349, 24 h

Row | Substance | MIC95
14 | H-IKPIIKPIIKPIIKPIIKPIIKPI-NH2 | > 64 µM

Tested on: Escherichia coli
Assay: Bactericidal activity against Escherichia coli ATCC 25922 incubated for 4 hrs followed by culture spread on agar plates and cultured overnight in presence of 25% serum albumin
Assay type: functional
Conditions: ATCC 25922, 4 h, read-out: MBC>99.9

Row | Substance | MBC
15 | H-IKPIIKPIIKPIIKPIIKPIIKPI-NH2 | > 128 µM

Tested on: Escherichia coli
Assay: Bactericidal activity against Escherichia coli UB1005 incubated for 4 hrs followed by culture spread on agar plates and cultured overnight
Assay type: functional
Conditions: UB1005, 4 h, read-out: MBC>99.9

Row | Substance | MBC
16 | H-IKPIIKPIIKPIIKPIIKPIIKPI-NH2 | 32 µM

Tested on: Escherichia coli
Assay: Bactericidal activity against Escherichia coli ATCC 25922 incubated for 4 hrs followed by culture spread on agar plates and cultured overnight in presence of MgCl2
Assay type: functional
Conditions: ATCC 25922, 4 h, read-out: MBC>99.9

Row | Substance | MBC
17 | H-IKPIIKPIIKPIIKPIIKPIIKPI-NH2 | > 128 µM

Tested on: Escherichia coli
Assay: Bactericidal activity against Escherichia coli ATCC 25922 incubated for 4 hrs followed by culture spread on agar plates and cultured overnight in presence of FeCl3
Assay type: functional
Conditions: ATCC 25922, 4 h, read-out: MBC>99.9

Row | Substance | MBC
18 | H-IKPIIKPIIKPIIKPIIKPIIKPI-NH2 | > 128 µM

Tested on: Escherichia coli
Assay: Bactericidal activity against Escherichia coli ATCC 25922 incubated for 4 hrs followed by culture spread on agar plates and cultured overnight in presence of CaCl2
Assay type: functional
Conditions: ATCC 25922, 4 h, read-out: MBC>99.9

Row | Substance | MBC
19 | H-IKPIIKPIIKPIIKPIIKPIIKPI-NH2 | > 128 µM

Tested on: not listed separately
Assay: Antimicrobial activity against Salmonella pullorum C7913 after 24 hrs by NCCLS-protocol based assay
Assay type: functional, Salmonella enterica subsp. enterica serovar Pullorum
Conditions: Salmonella enterica, C7913, 24 h

Row | Substance | MIC95
20 | H-IKPIIKPIIKPIIKPIIKPIIKPI-NH2 | 64 µM

Tested on: Pseudomonas aeruginosa
Assay: Antimicrobial activity against Pseudomonas aeruginosa ATCC 27853 after 24 hrs by NCCLS-protocol based assay
Assay type: functional
Conditions: ATCC 27853, 24 h

Row | Substance | MIC95
21 | H-IKPIIKPIIKPIIKPIIKPIIKPI-NH2 | > 64 µM

Tested on: Salmonella typhimurium
Assay: Bactericidal activity against Salmonella typhimurium C7731 incubated for 4 hrs followed by culture spread on agar plates and cultured overnight
Assay type: functional, Salmonella enterica subsp. enterica serovar Typhimurium
Conditions: Salmonella enterica, C7731, 4 h; read-out: MBC>99.9

Row | Substance | MBC
22 | H-IKPIIKPIIKPIIKPIIKPIIKPI-NH2 | > 64 µM

Tested on: Pseudomonas aeruginosa
Assay: Bactericidal activity against Pseudomonas aeruginosa PAO1 incubated for 4 hrs followed by culture spread on agar plates and cultured overnight
Assay type: functional
Conditions: PAO1, 4 h, read-out: MBC>99.9

Row | Substance | MBC
23 | H-IKPIIKPIIKPIIKPIIKPIIKPI-NH2 | > 64 µM

Tested on: Pseudomonas aeruginosa
Assay: Antimicrobial activity against Pseudomonas aeruginosa PAO1 after 24 hrs by NCCLS-protocol based assay
Assay type: functional
Conditions: PAO1, 24 h

Row | Substance | MIC95
24 | H-IKPIIKPIIKPIIKPIIKPIIKPI-NH2 | > 64 µM

Tested on: Escherichia coli
Assay: Antimicrobial activity against Escherichia coli K99 after 24 hrs by NCCLS-protocol based assay
Assay type: functional
Conditions: K99, 24 h

Row | Substance | MIC95
25 | H-IKPIIKPIIKPIIKPIIKPIIKPI-NH2 | 8 µM

Tested on: Escherichia coli
Assay: Antimicrobial activity against Escherichia coli K88 after 24 hrs by NCCLS-protocol based assay
Assay type: functional
Conditions: K88, 24 h

Row | Substance | MIC95
26 | H-IKPIIKPIIKPIIKPIIKPIIKPI-NH2 | 4 µM

Tested on: Escherichia coli
Assay: Bactericidal activity against Escherichia coli K88 incubated for 4 hrs followed by culture spread on agar plates and cultured overnight
Assay type: functional
Conditions: K88, 4 h, read-out: MBC>99.9

Row | Substance | MBC
27 | H-IKPIIKPIIKPIIKPIIKPIIKPI-NH2 | 8 µM

Tested on: Pseudomonas aeruginosa
Assay: Antimicrobial activity against Pseudomonas aeruginosa 26305 clinical isolates after 24 hrs by NCCLS-protocol based assay
Assay type: functional
Conditions: Pseudomonas aeruginosa, 26305, 24 h

Row | Substance | MIC95
28 | H-IKPIIKPIIKPIIKPIIKPIIKPI-NH2 | > 64 µM

Tested on: Klebsiella pneumoniae
Assay: Bactericidal activity against Klebsiella pneumoniae incubated for 4 hrs followed by culture spread on agar plates and cultured overnight
Assay type: functional
Conditions: read-out: MBC>99.9

Row | Substance | MBC
29 | H-IKPIIKPIIKPIIKPIIKPIIKPI-NH2 | > 64 µM

Tested on: Pseudomonas aeruginosa
Assay: Bactericidal activity against Pseudomonas aeruginosa CICC 21630 clinical isolates incubated for 4 hrs followed by culture spread on agar plates and cultured overnight
Assay type: functional
Conditions: CICC 21630, 4 h, read-out: MBC>99.9

Row | Substance | MBC
30 | H-IKPIIKPIIKPIIKPIIKPIIKPI-NH2 | > 64 µM

Tested on: not listed separately
Assay: Bactericidal activity against Salmonella pullorum C7913 incubated for 4 hrs followed by culture spread on agar plates and cultured overnight
Assay type: functional, Salmonella enterica subsp. enterica serovar Pullorum
Conditions: Salmonella enterica, C7913, 4 h; read-out: MBC>99.9

Row | Substance | MBC
31 | H-IKPIIKPIIKPIIKPIIKPIIKPI-NH2 | > 64 µM

Tested on: Salmonella typhimurium
Assay: Antimicrobial activity against Salmonella typhimurium C7731 after 24 hrs by NCCLS-protocol based assay
Assay type: functional, Salmonella enterica subsp. enterica serovar Typhimurium
Conditions: Salmonella enterica, C7731, 24 h

Row | Substance | MIC95
32 | H-IKPIIKPIIKPIIKPIIKPIIKPI-NH2 | > 64 µM

Tested on: Pseudomonas aeruginosa
Assay: Antimicrobial activity against Pseudomonas aeruginosa CICC 21630 clinical isolates after 24 hrs by NCCLS-protocol based assay
Assay type: functional
Conditions: CICC 21630, 24 h

Row | Substance | MIC95
33 | H-IKPIIKPIIKPIIKPIIKPIIKPI-NH2 | > 64 µM

Tested on: Pseudomonas aeruginosa
Assay: Bactericidal activity against Pseudomonas aeruginosa 26305 clinical isolates incubated for 4 hrs followed by culture spread on agar plates and cultured overnight
Assay type: functional
Conditions: Pseudomonas aeruginosa, 26305, 4 h; read-out: MBC>99.9

Row | Substance | MBC
34 | H-IKPIIKPIIKPIIKPIIKPIIKPI-NH2 | > 64 µM

Tested on: Escherichia coli
Assay: Antimicrobial activity against Escherichia coli ATCC 25922 after 24 hrs by NCCLS-protocol based assay
Assay type: functional
Conditions: ATCC 25922, 24 h

Row | Substance | MIC95
35 | H-IKPIIKPIIKPIIKPIIKPIIKPI-NH2 | 16 µM

Tested on: Escherichia coli
Assay: Antimicrobial activity against Escherichia coli 078 after 24 hrs by NCCLS-protocol based assay
Assay type: functional
Conditions: Escherichia coli, 078, 24 h

Row | Substance | MIC95
36 | H-IKPIIKPIIKPIIKPIIKPIIKPI-NH2 | 64 µM

Tested on: Pseudomonas aeruginosa
Assay: Bactericidal activity against Pseudomonas aeruginosa ATCC 27853 incubated for 4 hrs followed by culture spread on agar plates and cultured overnight
Assay type: functional
Conditions: ATCC 27853, 4 h, read-out: MBC>99.9

Row | Substance | MBC
37 | H-IKPIIKPIIKPIIKPIIKPIIKPI-NH2 | > 64 µM

Tested on: Pseudomonas aeruginosa
Assay: Antimicrobial activity against Pseudomonas aeruginosa CICC 21625 clinical isolates after 24 hrs by NCCLS-protocol based assay
Assay type: functional
Conditions: CICC 21625, 24 h

Row | Substance | MIC95
38 | H-IKPIIKPIIKPIIKPIIKPIIKPI-NH2 | > 64 µM

Tested on: Escherichia coli
Assay: Bactericidal activity against Escherichia coli ATCC 25922 incubated for 4 hrs followed by culture spread on agar plates and cultured overnight in presence of NaCl
Assay type: functional
Conditions: ATCC 25922, 4 h, read-out: MBC>99.9

Row | Substance | MBC
39 | H-IKPIIKPIIKPIIKPIIKPIIKPI-NH2 | > 128 µM

Tested on: Escherichia coli
Assay: Bactericidal activity against Escherichia coli ATCC 25922 incubated for 4 hrs followed by culture spread on agar plates and cultured overnight in presence of 12.5% serum albumin
Assay type: functional
Conditions: ATCC 25922, 4 h, read-out: MBC>99.9

Row | Substance | MBC
40 | H-IKPIIKPIIKPIIKPIIKPIIKPI-NH2 | > 128 µM

Tested on: Escherichia coli
Assay: Antimicrobial activity against Escherichia coli UB1005 after 24 hrs by NCCLS-protocol based assay
Assay type: functional
Conditions: UB1005, 24 h

Row | Substance | MIC95
41 | H-IKPIIKPIIKPIIKPIIKPIIKPI-NH2 | 16 µM

Tested on: Klebsiella pneumoniae
Assay: Antimicrobial activity against Klebsiella pneumoniae after 24 hrs by NCCLS-protocol based assay
Assay type: functional
Conditions: not given

Row | Substance | MIC95
42 | H-IKPIIKPIIKPIIKPIIKPIIKPI-NH2 | > 64 µM
